Measured values: paper PMC3518498 (Oncoimmunology, 2012)

Tests used:
[1] = target: T1, HLA-A2 (A*0201) (Homo sapiens, UniProt P04439, D140Y/D185E/D98H/E176V/E277Q/G131W/G231S/I119V/I121R/I166T/I218V/L300P/L318F/N151K/N90K/P208A/P217A/Q86G/Q94H/R138H/R169H/T345S); test: iTopia initial binding assay; details: Table 1
[2] = target: T1, HLA-A2 (A*0201); test: iTopia stability; details: Table 1
[3] = test system: HLA-A2 transgenic (HHD) mice; test: Peptide immunization of HHD mice, IFNγ intracellular staining of splenocytes; assay type: in vivo, mouse; details: for Average % CD8+IFNγ+ cells: group average, splenocytes stimulated with native peptide

Sequence | Initial binding, % pos control [1] [% pos control] | Binding after 8 h incubation w/o free peptide, % pos control [2] [% pos control] | MHC complex stability (T1/2) [2] [h] | Average % CD8+IFNγ+ cells ([3]; HHD mice) [% CD8+IFNγ+ cells] | Fold higher native peptide-specific T-cell response with analog ([3]; analog vs. native peptide immunization, HHD mice) [fold] | Corresponding native peptide: CMIR, % CD8+IFNγ+ cells ([3]; HHD mice immunized with the native peptide, Table 1) [% CD8+IFNγ+ cells] | Corresponding native peptide: Fraction of responders ([3]; HHD mice immunized with the native peptide, responder > 0.1%, Table 1) | Range of individual mouse responses, % CD8+IFNγ+ cells ([3]; HHD mice, individual animals)
ALCRWGLLV [H.5.V9] | 72.3 | 33.9 | 6.2 |  |  |  |  | 
ALVGILLVVV [H.657(10).L2] | 13.8 | 17.8 |  |  |  |  |  | 
ALVGIMIGV [C.687.L2] | 73.7 | 76.2 | 26.3 |  |  |  |  | 
AVVGILLVV [H.657] | 20.6 | 12.0 | 8.6 |  |  |  |  | 
FLDLQVNSL [T.986] | 69.5 | 54.5 | 7.8 |  |  |  |  | 
FLHWLMSVYV [T.544] | 48.0 | 74.4 | 40.0 |  |  |  |  | 
FLVDDFLLV [T.865.F1] | 88.4 | 76.2 | 13.2 | > 0.1 | 1.9 |  |  | 
ILAKFLHWLM [T.540(10)] |  |  |  |  |  | 0.06 | 1/5 | 
ILAKFLHWLV [T.540(10).V10] | 99.8 | 88.8 | 16.8 | > 0.1 |  |  |  | 
KLFGSLAFL | 79.7 | 114.9 | 40.0 |  |  |  |  | 
LLDTRTLEV [T.934] | 80.2 | 66.3 | 21.6 |  |  |  |  | 
RLTVTTITV [C.310.L2] | 61.2 | 64.4 | 25.4 |  |  |  |  | 3.0–14.3%
VVLGVVFGV [H.665.V9] | 65.8 | 72.7 | 40.0 |  |  |  |  | 
YLSGANLNV [C.605.V9] | 73.2 | 78.5 | 27.4 |  |  |  |  | 
